# Measured values as given in the Kinase Knowledgebase extract (Sharma et al. 2016).
# “And” between values parts separate entries of the source, which are not always exact repeats. Equal entries are not always repeated.
# Key:
# [1] = target: EGFR (Human), P00533 [Inhibition of EGFR Dependent Proliferation of HCC827(.Delta.746-750) cells]; test: Cell-Based Assay
# [2] = target: EGFR (Human), P00533 [T790M/L858R]; test: Cell-Based Assay; details: h1975
# [3] = target: EGFR (human), P00533 [WT]; details: a431
# EGFR (human), P00533 [WT], sequence (P00533 whole entry, looked up): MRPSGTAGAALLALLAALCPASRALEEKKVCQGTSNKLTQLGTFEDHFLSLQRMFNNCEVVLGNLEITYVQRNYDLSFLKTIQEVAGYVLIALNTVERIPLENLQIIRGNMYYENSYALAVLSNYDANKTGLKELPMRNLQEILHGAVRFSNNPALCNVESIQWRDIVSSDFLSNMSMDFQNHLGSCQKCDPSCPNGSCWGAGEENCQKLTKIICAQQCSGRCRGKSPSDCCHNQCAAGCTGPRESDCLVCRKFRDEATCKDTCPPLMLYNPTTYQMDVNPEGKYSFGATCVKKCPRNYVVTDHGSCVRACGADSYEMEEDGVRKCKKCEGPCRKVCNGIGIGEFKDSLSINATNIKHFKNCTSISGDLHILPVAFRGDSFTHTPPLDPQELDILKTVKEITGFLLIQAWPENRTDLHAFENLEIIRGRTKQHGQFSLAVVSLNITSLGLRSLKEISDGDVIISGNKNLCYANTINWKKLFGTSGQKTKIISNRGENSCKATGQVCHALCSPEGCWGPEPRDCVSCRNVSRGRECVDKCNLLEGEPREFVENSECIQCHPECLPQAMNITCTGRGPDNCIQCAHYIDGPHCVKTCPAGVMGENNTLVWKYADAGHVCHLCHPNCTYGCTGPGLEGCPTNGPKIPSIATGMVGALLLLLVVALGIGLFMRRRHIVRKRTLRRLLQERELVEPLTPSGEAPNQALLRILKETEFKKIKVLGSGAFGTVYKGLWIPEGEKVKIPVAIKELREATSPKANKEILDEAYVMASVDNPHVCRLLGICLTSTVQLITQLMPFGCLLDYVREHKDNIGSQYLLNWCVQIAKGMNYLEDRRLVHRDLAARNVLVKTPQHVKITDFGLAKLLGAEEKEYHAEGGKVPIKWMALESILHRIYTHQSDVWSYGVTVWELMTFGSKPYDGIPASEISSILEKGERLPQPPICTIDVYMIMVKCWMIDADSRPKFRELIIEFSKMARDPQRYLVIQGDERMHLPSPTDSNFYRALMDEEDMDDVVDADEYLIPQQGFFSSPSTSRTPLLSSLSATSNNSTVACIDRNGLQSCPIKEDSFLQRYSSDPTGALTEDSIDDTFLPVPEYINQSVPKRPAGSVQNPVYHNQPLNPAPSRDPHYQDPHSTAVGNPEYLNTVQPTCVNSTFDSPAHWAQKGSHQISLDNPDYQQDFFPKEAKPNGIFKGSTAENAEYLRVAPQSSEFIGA
# [4] = target: EGFR (Human), P00533 [Assessment of Phosphorylation of EGFR(.Delta.746-750) in HCC827 Cells]; test: Cell-Based Assay
# EGFR (Human), P00533 [Assessment of Phosphorylation of EGFR(.Delta.746-750) in HCC827 Cells], sequence (P00533 whole entry, looked up, stated change not applied): as the sequence (P00533 whole entry, looked up) above
# [5] = target: EGFR (Human), P00533 [T790M/L858R]; test: Cell-Based Assay; details: h1975; remark: listed apart in the source
# [6] = target: EGFR (human), P00533 [WT]; test: Cell-Based Assay; details: a431
# EGFR (Human), P00533 [Inhibition of EGFR Dependent Proliferation of HCC827(.Delta.746-750) cells], sequence (P00533 whole entry, looked up, stated change not applied): as the sequence (P00533 whole entry, looked up) above
# EGFR (Human), P00533 [T790M/L858R], sequence (P00533 whole entry T790M/L858R, looked up): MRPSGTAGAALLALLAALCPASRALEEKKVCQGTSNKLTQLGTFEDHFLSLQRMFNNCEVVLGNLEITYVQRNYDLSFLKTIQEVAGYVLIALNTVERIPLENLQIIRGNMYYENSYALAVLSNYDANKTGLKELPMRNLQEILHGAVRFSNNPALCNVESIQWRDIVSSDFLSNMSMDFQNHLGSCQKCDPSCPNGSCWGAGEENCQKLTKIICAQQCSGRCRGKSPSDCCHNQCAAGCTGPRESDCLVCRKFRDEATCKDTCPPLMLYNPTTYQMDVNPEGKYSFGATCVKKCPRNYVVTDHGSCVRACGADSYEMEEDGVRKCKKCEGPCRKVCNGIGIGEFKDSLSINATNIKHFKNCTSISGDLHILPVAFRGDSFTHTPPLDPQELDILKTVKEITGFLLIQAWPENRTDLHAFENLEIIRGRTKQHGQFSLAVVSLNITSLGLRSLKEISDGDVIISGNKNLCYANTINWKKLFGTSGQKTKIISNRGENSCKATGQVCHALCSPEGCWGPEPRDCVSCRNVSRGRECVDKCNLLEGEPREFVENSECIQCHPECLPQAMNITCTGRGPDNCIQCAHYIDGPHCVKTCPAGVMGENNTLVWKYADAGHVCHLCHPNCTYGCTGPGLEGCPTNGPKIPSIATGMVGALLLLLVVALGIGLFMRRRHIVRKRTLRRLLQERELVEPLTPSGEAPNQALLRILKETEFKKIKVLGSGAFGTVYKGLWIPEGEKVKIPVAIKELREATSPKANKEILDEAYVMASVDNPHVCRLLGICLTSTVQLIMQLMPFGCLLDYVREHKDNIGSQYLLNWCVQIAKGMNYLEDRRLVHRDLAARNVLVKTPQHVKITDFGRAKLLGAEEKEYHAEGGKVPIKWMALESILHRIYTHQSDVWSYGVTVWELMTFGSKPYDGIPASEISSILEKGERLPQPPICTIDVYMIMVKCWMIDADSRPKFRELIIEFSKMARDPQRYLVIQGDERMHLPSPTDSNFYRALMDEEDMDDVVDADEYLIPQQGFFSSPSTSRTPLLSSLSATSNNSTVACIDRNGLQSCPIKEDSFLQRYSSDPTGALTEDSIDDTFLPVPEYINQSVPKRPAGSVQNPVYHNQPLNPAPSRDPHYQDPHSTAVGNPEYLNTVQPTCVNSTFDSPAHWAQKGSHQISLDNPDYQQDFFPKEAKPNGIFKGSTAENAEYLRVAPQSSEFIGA
SMILES,IC50 [1],IC50 [2] [nM],IC50 [3] [nM],IC50 [4] [nM],IC50 [5] [nM],IC50 [6] [nM]
C/C=C/C(=O)Nc1cccc(-n2c(=O)cc(C)c3cnc(Nc4ccc(OCCN(C)C)cc4OC)nc32)c1,1480 nM,870,24800,–,–,–
C=CC(=O)Nc1cccc(-n2c(=O)cc(C)c3cnc(Nc4ccc(N(C)CCN5CCCC5=O)cc4OC)nc32)c1,401 nM,108,4240,–,–,–
C=CC(=O)Nc1cccc(-n2c(=O)cc(C)c3cnc(Nc4cn(C)nc4C(F)(F)F)nc32)c1,–,53,–,–,–,–
C=CC(=O)Nc1cccc(-n2c(=O)cc(C)c3cnc(Nc4cnn(C)c4)nc32)c1,77 nM,62,16600,–,–,–
C=CC(=O)Nc1cccc(-n2c(=O)cc(C)c3cnc(Nc4ccnn4CC)nc32)c1,–,911,–,–,–,–
C=CC(=O)Nc1cccc(-n2c(=O)cc(C)c3cnc(Nc4cnn(C(C)C)c4)nc32)c1,–,101,–,–,–,–
C=CC(=O)Nc1cccc(-n2c(=O)cc(C)c3cnc(Nc4ccc(C5CCNCC5)cc4)nc32)c1,–,180,–,–,–,–
C=CC(=O)Nc1cccc(-n2c(=O)cc(C)c3cnc(Nc4ccc(N5CCN(C)CC5)cc4OC)nc32)c1,–,–,–,8,–,–
C=CC(=O)Nc1cccc(-n2c(=O)cc(C)c3cnc(Nc4ccc(N(C)CCO)cc4OC)nc32)c1,483 nM,35,1690,–,–,–
C=CC(=O)N1CC[C@H](Cn2c(=O)cc(C)c3cnc(Nc4ccc(N5CCN(C)CC5)cc4OC)nc32)C1,–,175,–,–,–,–
C=CC(=O)Nc1cccc(-n2c(=O)cc(C)c3cnc(Nc4ccc(OCCN(C)C)cc4F)nc32)c1,76 nM,51,1340,–,–,–
C=CC(=O)Nc1cccc(-n2c(=O)cc(C)c3cnc(Nc4ccc(OCCOC)cc4)nc32)c1,249 nM,42,2410,–,–,–
C/C=C/C(=O)Nc1cccc(-n2c(=O)cc(C)c3cnc(Nc4ccc(N(C)CCN(C)C)cc4OC)nc32)c1,1370 nM,336,18000,–,–,–
C=CC(=O)Nc1cccc(-n2c(=O)ccc3cnc(Nc4ccc(N5CCN(C)CC5)cc4OC)nc32)c1,–,–,–,3.4,–,–
C=CC(=O)Nc1cccc(-n2c(=O)cc(C)c3cnc(Nc4cnn(CCN(C)C)c4)nc32)c1,305 nM,162,–,–,–,–
C=CC(=O)Nc1cccc(-n2c(=O)cc(C)c3cnc(Nc4cccc(F)c4)nc32)c1,–,714,–,–,–,–
C=CC(=O)Nc1cccc(-n2c(=O)cc(C)c3cnc(Nc4ccc(N5CCC(C(C)(C)O)CC5)cc4)nc32)c1,401 nM,176,6670,–,–,–
C=CC(=O)Nc1cccc(-n2c(=O)cc(C)c3cnc(Nc4cn(C5CCN(C)CC5)nc4C)nc32)c1.C=CC(=O)Nc1cccc(-n2c(=O)cc(C)c3cnc(Nc4cnn(C5CCN(C)CC5)c4C)nc32)c1,1050 nM,310,1820,–,–,–
C=CC(=O)Nc1cccc(-n2c(=O)ccc3cnc(Nc4ccc(NC5CN(CCF)C5)cc4OC)nc32)c1,–,–,–,5,–,–
C=CC(=O)Nc1cccc(-n2c(=O)cc(C)c3cnc(Nc4cc(C)nn4C)nc32)c1,–,762,–,–,–,–
C=CC(=O)Nc1cccc(-n2c(=O)cc(C)c3cnc(Nc4ccc(N5CCN(C)CC5)c(F)c4)nc32)c1,86 nM,28,1260,–,–,–
C=CC(=O)Nc1cccc(-n2c(=O)cc(C)c3cnc(Nc4ccc(N(C)CCN5CCCC5)cc4OC)nc32)c1,272 nM,128,1410,–,–,–
C=CC(=O)Nc1cccc(-n2c(=O)c(OC)cc3cnc(Nc4ccc(N5CCN(C)CC5)cc4OC)nc32)c1,61 nM,272,201,–,–,–

# Now from value to compound:
IC50 [1],IC50 [2] [nM],IC50 [3] [nM],IC50 [4] [nM],IC50 [5] [nM],IC50 [6] [nM],SMILES
–,10.3,2110,–,–,–,C=CC(=O)Nc1cccc(-n2c(=O)cc(C)c3cnc(Nc4ccc(O[C@H]5CCN(C)C5)cc4OC)nc32)c1
22 nM,16,1250,–,–,–,C=CC(=O)Nc1cccc(-n2c(=O)cc(C)c3cnc(Nc4cn(C)nc4C)nc32)c1
36 nM,5.8,653,–,–,–,C=CC(=O)Nc1cccc(-n2c(=O)cc(C)c3cnc(Nc4ccc(N5CCN(C)CC5)c(C)c4)nc32)c1
46 nM,4.7,832,–,–,–,C=CC(=O)Nc1cccc(-n2c(=O)cc(C)c3cnc(Nc4ccc(OCCN(C)C)cc4Cl)nc32)c1
22 nM,8,1400,24,7.8,689,C=CC(=O)Nc1cccc(-n2c(=O)cc(C)c3cnc(Nc4ccc(N(C)CCN(C)C)cc4OC)nc32)c1
18 nM,4,250,–,–,–,C=CC(=O)Nc1cccc(-n2c(=O)c(Cc3ccccc3)cc3cnc(Nc4ccc(N5CCN(C)CC5)cc4OC)nc32)c1
49 nM,18,1280,–,–,–,C=CC(=O)Nc1cccc(-n2c(=O)cc(C)c3cnc(Nc4cn([C@H]5CCN(C)C5)nc4C)nc32)c1
21 nM,13,3100,–,–,–,C=CC(=O)Nc1cccc(-n2c(=O)cc(C)c3cnc(Nc4ccc(N(C)CCN(C)C)cc4Cl)nc32)c1
23 nM,8,–,–,–,–,C=CC(=O)Nc1cccc(-n2c(=O)cc(C)c3cnc(Nc4ccc(N(C)CCN(C)C)cc4)nc32)c1
17 nM and 10 nM,9,1030,–,–,–,C=CC(=O)Nc1cccc(-n2c(=O)cc(C)c3cnc(Nc4ccc(OCCN(C)C)cc4)nc32)c1
83 nM,24,884,–,–,–,C=CC(=O)Nc1cccc(-n2c(=O)cc(C)c3cnc(Nc4ccc(N(C)CCN(C)C)cc4OC(F)F)nc32)c1
124 nM,9,1150,–,–,–,C=CC(=O)Nc1cccc(-n2c(=O)cc(C)c3cnc(Nc4ccc(N(C)CCN(C)C)cc4C)nc32)c1
27 nM,11,–,–,–,–,C=CC(=O)Nc1cccc(-n2c(=O)cc(C)c3cnc(Nc4ccc(C5CCN(C)CC5)cc4)nc32)c1
30 nM,16,2870,–,–,–,C=CC(=O)Nc1cccc(-n2c(=O)cc(C)c3cnc(Nc4cn(C)nc4Cl)nc32)c1
236 nM,9,4270,–,–,–,C=CC(=O)Nc1cccc(-n2c(=O)cc(C)c3cnc(Nc4ccc(N5CCN(C(C)=O)CC5)cc4Cl)nc32)c1
2 nM,7,–,–,–,–,C=CC(=O)Nc1cccc(-n2c(=O)ccc3cnc(Nc4cn(C)nc4C)nc32)c1
41 nM,10,1390,–,–,–,C=CC(=O)Nc1cccc(-n2c(=O)c(OC)c(C)c3cnc(Nc4ccc(N5CCN(C)CC5)cc4OC)nc32)c1
159 nM,27,1550,–,–,–,C=CC(=O)Nc1cccc(-n2c(=O)cc(C)c3cnc(Nc4ccc(OCCCN(C)C)cc4)nc32)c1
28 nM,4,2400,17,4,511,C=CC(=O)Nc1cccc(-n2c(=O)cc(C)c3cnc(Nc4ccc(OCCN(C)C)cc4OC)nc32)c1
